These results are taken from article PMC9516332 (Frontiers in Oncology, 2022).

Test in all cases: Kinase panel profiling at 1 µmol/L (MSA or IMAP), percentage inhibition
Common to all, as to type: biochemical

Experiment [1] addresses panel of 255 wild-type kinases (Homo sapiens, UniProt Q16539). The note with it: p38α; 1 µmol/L single concentration; read-out: %-inhibition, p38α.
The target in experiment [2] is panel of 255 wild-type kinases (Homo sapiens, UniProt Q9UM73). The note with it: ALK kinase assay; 1 µmol/L single concentration; read-out: %-inhibition ALK.
In experiment [3] the target is panel of 255 wild-type kinases (Homo sapiens, UniProt Q8N568). The note with it: kinase DCAMKL2; 1 µmol/L single concentration; read-out: %-inhibition at 1 µmol/L, DCAMKL2.
The target in experiment [4] is panel of 255 wild-type kinases (Homo sapiens, UniProt Q9HBH9). The conditions noted are these: MNK2; 1 µmol/L single concentration; read-out: %-inhibition, MNK2.
In experiment [5] the target is panel of 255 wild-type kinases (Homo sapiens, UniProt P11802). The note with it: CDK4/CycD3 kinase assay; 1 µmol/L single concentration; read-out: %-inhibition CDK4/CycD3.
Experiment [6] has as its target T1, panel of 255 wild-type kinases (Homo sapiens, UniProt Q8TF76).
T1 sequence (Q8TF76 1-798): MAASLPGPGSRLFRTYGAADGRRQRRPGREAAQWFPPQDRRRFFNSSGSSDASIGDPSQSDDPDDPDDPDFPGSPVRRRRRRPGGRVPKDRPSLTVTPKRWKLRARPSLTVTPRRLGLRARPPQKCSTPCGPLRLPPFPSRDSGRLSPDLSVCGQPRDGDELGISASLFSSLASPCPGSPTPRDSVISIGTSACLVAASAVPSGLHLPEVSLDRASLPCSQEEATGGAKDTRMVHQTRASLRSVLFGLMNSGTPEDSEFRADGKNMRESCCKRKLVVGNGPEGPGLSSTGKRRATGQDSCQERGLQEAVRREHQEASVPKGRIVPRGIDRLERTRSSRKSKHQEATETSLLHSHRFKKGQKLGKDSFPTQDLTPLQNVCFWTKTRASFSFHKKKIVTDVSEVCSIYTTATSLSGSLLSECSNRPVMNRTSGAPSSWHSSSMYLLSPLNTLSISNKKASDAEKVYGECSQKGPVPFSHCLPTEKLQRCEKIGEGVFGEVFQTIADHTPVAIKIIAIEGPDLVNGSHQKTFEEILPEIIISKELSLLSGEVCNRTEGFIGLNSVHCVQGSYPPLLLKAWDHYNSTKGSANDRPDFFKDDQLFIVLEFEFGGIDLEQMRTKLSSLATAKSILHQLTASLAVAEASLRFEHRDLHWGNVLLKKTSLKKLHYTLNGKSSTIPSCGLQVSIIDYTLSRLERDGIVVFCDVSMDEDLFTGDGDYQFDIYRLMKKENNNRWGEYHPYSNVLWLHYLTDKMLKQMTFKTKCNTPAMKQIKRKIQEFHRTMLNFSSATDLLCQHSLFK
The note with it: kinase Haspin; 1 µmol/L single concentration; read-out: %-inhibition at 1 µmol/L, Haspin.

Experiment [7] addresses T2, panel of 255 wild-type kinases (Homo sapiens, UniProt Q96PN8).
T2 sequence (Q96PN8 1-268): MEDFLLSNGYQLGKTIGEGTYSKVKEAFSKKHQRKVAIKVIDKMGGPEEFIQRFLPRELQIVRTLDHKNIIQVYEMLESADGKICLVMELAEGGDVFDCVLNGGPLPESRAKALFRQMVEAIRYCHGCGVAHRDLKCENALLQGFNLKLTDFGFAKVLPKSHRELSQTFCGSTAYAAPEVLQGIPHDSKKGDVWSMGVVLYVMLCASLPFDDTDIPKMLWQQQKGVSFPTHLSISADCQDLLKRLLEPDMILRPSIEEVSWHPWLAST
The note with it: kinase TSSK3; 1 µmol/L single concentration; read-out: %-inhibition at 1 µmol/L, TSSK3.

In experiment [8] the target is T3, panel of 255 wild-type kinases (Homo sapiens, UniProt Q96PF2).
T3 sequence (Q96PF2 1-358): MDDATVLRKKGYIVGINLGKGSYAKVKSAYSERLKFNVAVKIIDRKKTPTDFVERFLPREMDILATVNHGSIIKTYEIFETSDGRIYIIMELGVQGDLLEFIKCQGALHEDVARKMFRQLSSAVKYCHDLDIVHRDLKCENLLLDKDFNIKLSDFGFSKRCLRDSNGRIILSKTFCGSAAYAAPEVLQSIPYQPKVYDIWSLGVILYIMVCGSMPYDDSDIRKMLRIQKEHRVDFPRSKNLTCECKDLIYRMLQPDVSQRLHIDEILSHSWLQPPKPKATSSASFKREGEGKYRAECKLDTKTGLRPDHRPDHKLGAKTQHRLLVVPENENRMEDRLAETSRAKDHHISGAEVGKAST
The conditions noted are these: kinase TSSK2; 1 µmol/L single concentration; read-out: %-inhibition at 1 µmol/L, TSSK2.

The target of experiment [9] is panel of 255 wild-type kinases (Homo sapiens, UniProt P78362). The note with it: kinase SRPK2; 1 µmol/L single concentration; read-out: %-inhibition at 1 µmol/L, SRPK2.

Turning to `CCN1C(=O)N(c2c(F)c(OC)cc(OC)c2F)Cc2cnc3[nH]c(CN4CCOCC4)cc3c21` [pemigatinib], the inhibition at 1 µM in experiment [1] was 14%; in experiment [2] it was -1.12%; in [3], 27%; in experiment [4] it was -7.4%; in experiment [5] it was 9%; in experiment [6], -3.7%. For the same compound, the inhibition at 1 µM in experiment [7] was -0.468%; in [8], -3.21%; in experiment [9], -6%.
`FC(F)(F)c1ccc(CNc2ccc(Cc3c[nH]c4ncc(Cl)cc34)cn2)cn1` [pexidartinib]: the inhibition at 1 µM is 0.932% in experiment [1]; 11% in experiment [2]; 3.25% in experiment [3]; 48% in experiment [4]; -1.58% in experiment [5]; 6.52% in experiment [6]. Besides, the inhibition at 1 µM in experiment [7] is 10%; in [8] it was -0.308%; in experiment [9], -1.19%.
Take `CO[C@]1(C(=O)N[C@@H](C)c2ccc(-n3cc(F)cn3)nc2)CC[C@H](c2nc(C)cc(Nc3cc(C)[nH]n3)n2)CC1` [pralsetinib]: the inhibition at 1 µM was 3% in experiment [1]; 35% in experiment [2]; 1.65% in [3]; 2% in [4]; -1% in experiment [5]; 0.149% in experiment [6]. Also, the inhibition at 1 µM in experiment [7] was -5%; in experiment [8], 8%; in [9], -2.72%.
Consider `CCn1c(=O)c(-c2cc(NC(=O)Nc3ccccc3)c(F)cc2Br)cc2cnc(NC)cc21` [ripretinib], for which the inhibition at 1 µM is 88% in experiment [1]; 2.68% in [2]; 2% in experiment [3]; 5% in experiment [4]; -1.19% in experiment [5]; 1.87% in experiment [6]. The inhibition at 1 µM was -0.0717% in experiment [7], -3.73% in [8] and -2.82% in experiment [9].
For the compound `COc1ccc(CN2C3CC2CN(c2ccc(-c4cc(OCC(C)(C)O)cn5ncc(C#N)c45)cn2)C3)cn1` [selpercatinib], the inhibition at 1 µM in experiment [1] is -0.132%; in experiment [2], 4%; in [3] it was 1.22%; in experiment [4], 37%; in experiment [5] it was 0.921%; in experiment [6], -4.63%. Also, the inhibition at 1 µM in experiment [7] was -4%; in [8], -0.889%; in experiment [9], -0.197%.
Consider `Cc1cc(Nc2ncnc3ccc(NC4=NC(C)(C)CO4)cc23)ccc1Oc1ccn2ncnc2c1` [tucatinib], for which the inhibition at 1 µM in experiment [1] is 1.53%; in experiment [2] it was 32%; in experiment [3], 3.59%; in experiment [4], 8%; in [5], -2%; in [6], 0.893%. In addition, the inhibition at 1 µM in experiment [7] was -0.029%; in experiment [8], -0.922%; in experiment [9], -0.581%.
For `C=CC(=O)N1CCC([C@@H]2CCNc3c(C(N)=O)c(-c4ccc(Oc5ccccc5)cc4)nn32)CC1` [zanubrutinib], the inhibition at 1 µM in experiment [1] was -1.11%; in [2], 2.23%; in experiment [3], 0.323%; in experiment [4] it was -5%; in experiment [5] it was -1.7%; in experiment [6] it was -1.75%. Moreover, the values for the inhibition at 1 µM in experiment [7], in [8] and in experiment [9] were 0.315%, 0.571% and -2.35%, respectively.
